Assay results from PubChem BioAssay AID328 (DTP/NCI, 2004).
Several values for one entry are separate records, joined by “and”; a condition that tells them apart may be missing. Equal entries are not always repeated. Inconclusive results and toxic doses are left out.

System: BDF1 mice, P388 leukemia ip, median survival T/C
Assay: NCI In Vivo Anticancer Drug Screen. Data for tumor model P388 Leukemia (intraperitoneal) in B6D2F1 (BDF1) mice
Conditions: endpoint: median survival time, higher = longer survival
Method in brief: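 Antitumour effect was judged in vivo: survival in drug-treated mice, normalised to that of vehicle-dosed controls, gives the reported T/C.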

[1] = dose: 100.0 mg/kg/injection, schedule: Q01DX009 (ip), vehicle: saline
[2] = dose: 200.0 mg/kg/injection, schedule: Q01DX009 (ip), vehicle: saline
[3] = dose: 50.0 mg/kg/injection, schedule: Q01DX009 (ip), vehicle: saline with Tween-80
[4] = dose: 100.0 mg/kg/injection, schedule: Q01DX009 (ip), vehicle: saline with Tween-80
[5] = dose: 200.0 mg/kg/injection, schedule: Q01DX009 (ip), vehicle: saline with Tween-80
[6] = dose: 100.0 mg/kg/injection, schedule: Q01DX009 (ip), vehicle: Klucel (hydroxypropylcellulose) (HPC)
[7] = dose: 100.0 mg/kg/injection, schedule: Q04DX003 (ip), vehicle: Klucel (hydroxypropylcellulose) (HPC)
[8] = dose: 200.0 mg/kg/injection, schedule: Q01DX009 (ip), vehicle: Klucel (hydroxypropylcellulose) (HPC)
[9] = dose: 200.0 mg/kg/injection, schedule: Q04DX003 (ip), vehicle: Klucel (hydroxypropylcellulose) (HPC)
[10] = dose: 400.0 mg/kg/injection, schedule: Q04DX003 (ip), vehicle: Klucel (hydroxypropylcellulose) (HPC)
[11] = dose: 25.0 mg/kg/injection, schedule: Q01DX009 (ip), vehicle: saline with Tween-80
[12] = dose: 400.0 mg/kg/injection, schedule: Q01DX009 (ip), vehicle: saline with Tween-80
[13] = dose: 100.0 mg/kg/injection, schedule: Q04DX003 (ip), vehicle: saline with Tween-80
[14] = dose: 200.0 mg/kg/injection, schedule: Q04DX003 (ip), vehicle: saline with Tween-80
[15] = dose: 400.0 mg/kg/injection, schedule: Q04DX003 (ip), vehicle: saline with Tween-80
[16] = dose: 50.0 mg/kg/injection, schedule: Q04DX003 (ip), vehicle: saline with Tween-80

`Cc1ccc(NCCN2CCOCC2)c2c(=O)c3ccccc3sc12` was tested, and the T/C [1] was 90 % of control, the T/C (dose: 100.0 mg/kg/injection, schedule: Q04DX003 (ip), vehicle: saline) was 110 % of control and the T/C [2] was 109 % of control. The T/C (dose: 200.0 mg/kg/injection, schedule: Q04DX003 (ip), vehicle: saline) was 110 % of control, the T/C (dose: 400.0 mg/kg/injection, schedule: Q01DX009 (ip), vehicle: saline) was 122 % of control and the T/C (dose: 400.0 mg/kg/injection, schedule: Q04DX003 (ip), vehicle: saline) was 110 % of control.

In the case of `O=C(O)C(Cc1cccc(F)c1)NC(=O)C(F)(F)F` (stereo not given), the T/C (dose: 1.56 mg/kg/injection, schedule: Q01DX009 (ip), vehicle: saline) is reported as 105 % of control, the T/C (dose: 3.13 mg/kg/injection, schedule: Q01DX009 (ip), vehicle: saline) is reported as 96 % of control and the T/C (dose: 6.25 mg/kg/injection, schedule: Q01DX009 (ip), vehicle: saline) is reported as 104 % of control.

In the case of `COC1(C(C)(C)C)C=C(C)/C(=C2\C(=O)Oc3c2cc(C)cc3C(C)(C)C)O1` (stereo not given), the T/C [3] is reported as 99 % of control, the T/C [4] is reported as 92 % of control and the T/C [5] is reported as 96 % of control.

`CC(=O)N/N=C\C1=CCC=C(Br)S1` was tested, and the T/C [3] was 90 % of control and the T/C [4] was 104 % of control.

With `N#C/C(=C1C=C(Br)/C(=N\O)C=C\1Cl)c1ccc(Cl)cc1` the T/C (dose: 25.0 mg/kg/injection, schedule: Q01DX009 (ip), vehicle: Klucel (hydroxypropylcellulose) (HPC)) was 115 % of control, the T/C (dose: 50.0 mg/kg/injection, schedule: Q01DX009 (ip), vehicle: Klucel (hydroxypropylcellulose) (HPC)) was 110 % of control and the T/C [6] was 115 % of control and 123 % of control. The T/C [7] was 100 % of control, the T/C (dose: 150.0 mg/kg/injection, schedule: Q01DX009 (ip), vehicle: Klucel (hydroxypropylcellulose) (HPC)) was 109 % of control and the T/C [8] was 123 % of control. For the same compound, the T/C [9] was 118 % of control, the T/C (dose: 225.0 mg/kg/injection, schedule: Q01DX009 (ip), vehicle: Klucel (hydroxypropylcellulose) (HPC)) was 109 % of control and the T/C [10] was 113 % of control.

`Cc1ccccc1P(=O)(c1ccccc1C)c1ccccc1C` was tested, and the T/C [11] was 90 % of control, the T/C [3] was 94 % of control and the T/C [4] was 94 % of control.

With `Cc1cc(NC(=O)Nc2cccc(C3=NCCN3)c2)ccc1NC(=O)Nc1cccc(C2=NCCN2)c1` the T/C [4] was 118 % of control and the T/C [12] was 190 % of control.

For `COc1cc(N/C(N)=N\C(N)=NC(C)C)cc(OC)c1OC`, the T/C (dose: 100.0 mg/kg/injection, schedule: Q04DX003 (ip), vehicle: saline sonified) was 95 % of control.

In the case of `CCCN(Cc1ccc(CN(CCC)C(=O)C(Cl)Cl)cc1)C(=O)C(Cl)Cl`, the T/C [13] is reported as 93 % of control, the T/C [14] is reported as 95 % of control and the T/C [15] is reported as 88 % of control.

In the case of `CC(C)=CC(=O)OCC[N+](C)(C)C`, the T/C (dose: 12.5 mg/kg/injection, schedule: Q01DX009 (ip), vehicle: saline) is reported as 97 % of control and the T/C (dose: 25.0 mg/kg/injection, schedule: Q01DX009 (ip), vehicle: saline) is reported as 90 % of control.

`C=C(C)C(=O)Oc1ccc([N+](=O)[O-])cc1` was tested, and the T/C [3] was 96 % of control, the T/C [4] was 113 % of control and the T/C [5] was 98 % of control.

In the case of `Clc1ncc(Br)c(Cl)n1`, the T/C (dose: 2.7 mg/kg/injection, schedule: Q01DX009 (ip), vehicle: Klucel (hydroxypropylcellulose) (HPC)) is reported as 95 % of control, the T/C (dose: 4.1 mg/kg/injection, schedule: Q01DX009 (ip), vehicle: Klucel (hydroxypropylcellulose) (HPC)) is reported as 95 % of control and the T/C (dose: 8.2 mg/kg/injection, schedule: Q01DX009 (ip), vehicle: Klucel (hydroxypropylcellulose) (HPC)) is reported as 109 % of control. The T/C (dose: 8.3 mg/kg/injection, schedule: Q01DX009 (ip), vehicle: Klucel (hydroxypropylcellulose) (HPC)) was 100 % of control, the T/C (dose: 12.5 mg/kg/injection, schedule: Q01DX009 (ip), vehicle: Klucel (hydroxypropylcellulose) (HPC)) was 100 % of control and 109 % of control and the T/C (dose: 13.75 mg/kg/injection, schedule: Q04DX003 (ip), vehicle: Klucel (hydroxypropylcellulose) (HPC)) was 104 % of control. For the same compound, the T/C (dose: 18.0 mg/kg/injection, schedule: Q01DX009 (ip), vehicle: Klucel (hydroxypropylcellulose) (HPC)) was 100 % of control, the T/C (dose: 18.75 mg/kg/injection, schedule: Q01DX009 (ip), vehicle: Klucel (hydroxypropylcellulose) (HPC)) was 115 % of control and the T/C (dose: 27.5 mg/kg/injection, schedule: Q04DX003 (ip), vehicle: Klucel (hydroxypropylcellulose) (HPC)) was 100 % of control. The T/C (dose: 55.0 mg/kg/injection, schedule: Q04DX003 (ip), vehicle: Klucel (hydroxypropylcellulose) (HPC)) was 108 % of control, the T/C (dose: 80.0 mg/kg/injection, schedule: Q04DX003 (ip), vehicle: Klucel (hydroxypropylcellulose) (HPC)) was 108 % of control and the T/C (dose: 125.0 mg/kg/injection, schedule: Q04DX003 (ip), vehicle: Klucel (hydroxypropylcellulose) (HPC)) was 100 % of control.

`COC(=O)CCC(C)C1CCC2C3CCC4CC(SC(=N)N)CCC4(C)C3CC(O)C12C` (stereo not given) was tested, and the T/C [3] was 91 % of control, the T/C [4] was 89 % of control and the T/C [5] was 89 % of control.

With `O=C(Nc1cc(Cl)ccc1Cl)c1ccc(C(=O)Nc2cc(Cl)ccc2Cl)cc1` the T/C [4] was 94 % of control, the T/C [5] was 91 % of control and the T/C [12] was 110 % of control.

For `CCCCN1C/C(=C\c2ccc(Br)cc2)C(=O)/C(=C/c2ccc(Br)cc2)C1`, the T/C (dose: 6.25 mg/kg/injection, schedule: Q01DX005 (ip), vehicle: saline with Tween-80) was 91 % of control and the T/C (dose: 12.5 mg/kg/injection, schedule: Q01DX005 (ip), vehicle: saline with Tween-80) was 95 % of control.

`Cc1cc(C)c(NS(=O)(=O)c2ccccc2)c(C)n1` was tested, and the T/C [13] was 100 % of control, the T/C [14] was 91 % of control and the T/C [15] was 91 % of control.

`NC(CCC(=O)NNc1ccccc1)C(=O)O` (stereo not given) was tested, and the T/C (dose: 15.0 mg/kg/injection, schedule: Q01DX009 (ip), vehicle: saline with Tween-80) was 96 % of control and the T/C (dose: 30.0 mg/kg/injection, schedule: Q01DX009 (ip), vehicle: saline with Tween-80) was 91 % of control.

With `C/C(N=Nc1ccc([N+](=O)[O-])cc1)=N\Nc1ccccc1` the T/C [6] was 94 % of control, the T/C [7] was 91 % of control and the T/C [8] was 100 % of control. For the same compound, the T/C [9] was 87 % of control, the T/C (dose: 400.0 mg/kg/injection, schedule: Q01DX009 (ip), vehicle: Klucel (hydroxypropylcellulose) (HPC)) was 100 % of control and the T/C [10] was 104 % of control.

In the case of `CCCCC(C)(O)CC` (stereo not given), the T/C [3] is reported as 109 % of control, the T/C [4] is reported as 118 % of control and the T/C [13] is reported as 104 % of control. For the same compound, the T/C [5] was 100 % of control and the T/C [14] was 104 % of control.

In the case of `O=S(=O)(Cl)CCCBr`, the T/C (dose: 50.0 mg/kg/injection, schedule: Q01DX001 (ip), vehicle: saline sonified) is reported as 100 % of control, the T/C (dose: 100.0 mg/kg/injection, schedule: Q01DX001 (ip), vehicle: saline sonified) is reported as 100 % of control and the T/C (dose: 200.0 mg/kg/injection, schedule: Q01DX001 (ip), vehicle: saline sonified) is reported as 100 % of control.

In the case of `O=C(O)CNCc1ccc(Cl)cc1`, the T/C (dose: 50.0 mg/kg/injection, schedule: Q04DX003 (ip), vehicle: water) is reported as 103 % of control, the T/C (dose: 100.0 mg/kg/injection, schedule: Q04DX003 (ip), vehicle: water) is reported as 90 % of control and the T/C (dose: 200.0 mg/kg/injection, schedule: Q04DX003 (ip), vehicle: water) is reported as 94 % of control.

`CCOC1OCN(c2ccc(OC)cc2)CC1(C)C` (stereo not given) was tested, and the T/C [3] was 98 % of control and 100 % of control, the T/C [4] was 113 % of control and 114 % of control and the T/C [5] was 116 % of control and 124 % of control.

With `C=CCN(C)/N=N/c1[nH]ncc1C(N)=O` the T/C [3] was 104 % of control, the T/C [16] was 104 % of control and the T/C [13] was 109 % of control. The T/C [5] was 87 % of control and the T/C [14] was 109 % of control.

With `COc1ccc(C(=O)N(N)C2CCCCC2)cc1` the T/C (dose: 50.0 mg/kg/injection, schedule: Q01DX009 (ip), vehicle: saline) was 105 % of control, the T/C [1] was 105 % of control and the T/C [2] was 100 % of control.

With `CCC1CN2CCc3cc(OC)c(OC)cc3C2CC1C#N` (stereo not given) the T/C (dose: 12.5 mg/kg/injection, schedule: Q01DX009 (ip), vehicle: saline with Tween-80) was 89 % of control, the T/C [11] was 89 % of control and the T/C [3] was 86 % of control.

For `O=C1/C(=C\c2ccc(Cl)cc2Cl)SC(=S)N1Cc1ccco1`, the T/C [3] was 97 % of control, the T/C [4] was 91 % of control and the T/C [5] was 88 % of control.

For `CC(C)C1NC(=O)C2CCCN2C1=O` (stereo not given), the T/C [4] was 100 % of control, the T/C [13] was 109 % of control and the T/C [5] was 100 % of control. For the same compound, the T/C [14] was 113 % of control, the T/C [12] was 123 % of control and the T/C [15] was 118 % of control.

With `Oc1ccc2ccccc2c1/C=N\Sc1ccc(Br)cc1` the T/C (dose: 25.0 mg/kg/injection, schedule: Q04DX003 (ip), vehicle: saline with Tween-80) was 103 % of control, the T/C [16] was 100 % of control and the T/C [13] was 112 % of control.
